Experimental data as given in the NIST ThermoML archive (doi:10.1007/s10765-014-1730-1).

Details: Vibrating tube method; for specific volume: Gas; for mass density: Liquid

F/C=C\C(F)(F)F [(Z)-1,3,3,3-tetrafluoro-1-propene]
Details	mass density [kg/m3]	specific volume [m3/kg]
328.15 K, 202.5 kPa	–	0.111
328.15 K, 209.8 kPa	–	0.107
328.15 K, 232.5 kPa	–	0.095
328.15 K, 370.9 kPa	–	0.057
330.15 K, 287.2 kPa	–	0.076
333.15 K, 90.7 kPa	–	0.26
333.15 K, 126.2 kPa	–	0.185
333.15 K, 206.1 kPa	–	0.111
333.15 K, 213.5 kPa	–	0.107
333.15 K, 236.7 kPa	–	0.096
333.15 K, 378.4 kPa	–	0.057
333.15 K, 30992 kPa	1237.9	–
333.15 K, 31993 kPa	1240.4	–
333.16 K, 3769 kPa	1141.2	–
333.16 K, 4787 kPa	1146.4	–
333.16 K, 5795 kPa	1151.4	–
333.16 K, 6804 kPa	1156.2	–
333.16 K, 7816 kPa	1160.8	–
333.16 K, 8825 kPa	1165.2	–
333.16 K, 9828 kPa	1169.5	–
333.16 K, 10837 kPa	1173.6	–
333.16 K, 11848 kPa	1177.7	–
333.16 K, 12859 kPa	1181.6	–
333.16 K, 13868 kPa	1185.4	–
333.16 K, 15876 kPa	1192.7	–
333.16 K, 16881 kPa	1196.2	–
333.16 K, 17896 kPa	1199.7	–
333.16 K, 18911 kPa	1203	–
333.16 K, 19925 kPa	1206.3	–
333.16 K, 20935 kPa	1209.5	–
333.16 K, 21937 kPa	1212.6	–
333.16 K, 23957 kPa	1218.6	–
333.16 K, 24963 kPa	1221.5	–
333.16 K, 25970 kPa	1224.4	–
333.16 K, 26975 kPa	1227.2	–
333.16 K, 27976 kPa	1229.9	–
333.16 K, 28983 kPa	1232.6	–
333.16 K, 29987 kPa	1235.2	–
333.16 K, 32999 kPa	1243	–
333.16 K, 34003 kPa	1245.5	–
333.17 K, 574 kPa	1123.1	–
333.17 K, 754 kPa	1124.2	–
333.17 K, 1756 kPa	1130.2	–
333.17 K, 2756 kPa	1135.8	–
333.17 K, 14875 kPa	1189.1	–
333.17 K, 22950 kPa	1215.6	–
335.15 K, 292.6 kPa	–	0.077
338.15 K, 92.1 kPa	–	0.26
338.15 K, 128.2 kPa	–	0.185
338.15 K, 209.7 kPa	–	0.111
338.15 K, 217.2 kPa	–	0.107
338.15 K, 240.9 kPa	–	0.096
338.15 K, 385.9 kPa	–	0.057
340.15 K, 298 kPa	–	0.077
343.14 K, 680 kPa	1090.7	–
343.14 K, 761 kPa	1091.4	–
343.14 K, 1766 kPa	1098.6	–
343.14 K, 2771 kPa	1105.3	–
343.14 K, 3798 kPa	1111.8	–
343.14 K, 4828 kPa	1117.9	–
343.14 K, 5833 kPa	1123.5	–
343.14 K, 6839 kPa	1129	–
343.14 K, 7846 kPa	1134.2	–
343.14 K, 8850 kPa	1139.2	–
343.14 K, 9856 kPa	1144	–
343.14 K, 10867 kPa	1148.6	–
343.14 K, 11874 kPa	1153.1	–
343.14 K, 12884 kPa	1157.5	–
343.14 K, 13894 kPa	1161.7	–
343.14 K, 14898 kPa	1165.7	–
343.14 K, 15909 kPa	1169.7	–
343.14 K, 16918 kPa	1173.5	–
343.14 K, 17921 kPa	1177.2	–
343.14 K, 18924 kPa	1180.9	–
343.14 K, 19929 kPa	1184.4	–
343.14 K, 20931 kPa	1187.8	–
343.14 K, 21941 kPa	1191.3	–
343.14 K, 22943 kPa	1194.6	–
343.14 K, 24955 kPa	1201	–
343.14 K, 25963 kPa	1204	–
343.14 K, 26970 kPa	1207.1	–
343.14 K, 27977 kPa	1210	–
343.14 K, 28983 kPa	1212.9	–
343.14 K, 29990 kPa	1215.8	–
343.14 K, 30998 kPa	1218.7	–
343.14 K, 32004 kPa	1221.4	–
343.14 K, 34007 kPa	1226.7	–
343.15 K, 93.6 kPa	–	0.26
343.15 K, 130.3 kPa	–	0.185
343.15 K, 213.3 kPa	–	0.111
343.15 K, 220.9 kPa	–	0.107
343.15 K, 245.1 kPa	–	0.096
343.15 K, 393.2 kPa	–	0.057
343.15 K, 23946 kPa	1197.8	–
343.15 K, 33006 kPa	1224.1	–
345.15 K, 303.3 kPa	–	0.077
348.15 K, 95 kPa	–	0.26
348.15 K, 132.4 kPa	–	0.185
348.15 K, 216.8 kPa	–	0.111
348.15 K, 224.6 kPa	–	0.107
348.15 K, 249.2 kPa	–	0.096
348.15 K, 400.6 kPa	–	0.057
350.15 K, 308.6 kPa	–	0.077
